Source: patent US20260007741A1, “LIPID NANOPARTICLES FOR DELIVERY OF NUCLEIC ACIDS AND VACCINES” (priority 2024, published 2026)
Read-outs that look alike come from different tables or passages of the source.

Key:
MutuDC1940 cells = experiment: Transfection efficiency of mCherry mRNA LNPs in murine dendritic cells (flow cytometry); type: cell-based; settings: for mRNA endosomal escape and translation / mRNA transfection: MutuDC1940 cells, mCherry mRNA LNPs; for transfection activity when incorporated into LNPs: murine dendritic cells (Example 8)
Protocol: • 1. MutuDC1940 cells (Applied Biological Materials, T0528) were grown according to supplier's instructions in T75 flasks. They were plated at 180,000 cells/well into 24-well plate one day prior to transfection. • 2. LNPs were added in triplicate to each well at the desired mRNA concentration (e.g. 1 μg/mL) in 1 mL media and after 24 h the cells were washed once with DPBS (VWR 02-0119-1000). • 3. 0.2 mL of DPBS (plus 5 mM EDTA, pH 7.4) was then added to facilitate detachment. • 4. The cells were placed at 37° C. for 3 min, until detached. • 5. 0.5 ml DPBS added to each well and the liquid transferred to a flow cytometry tube (Falcon 5 mL #352054). • 6. The tube was centrifuged at 1100 rpm for 3-5 min and the liquid poured off. • 7. 100 μL of Zombie Violet (Biolegend) (diluted 1:500 in PBS) was added to each tube. • 8. The tubes were gently tapped to resuspend cells and placed in the dark for 15 min at RT. • 9. To the cells 0.5 mL of (paraformaldehyde 4% in PBS:DPBS 1:1) was added and the cells flicked gently to resuspend and put on ice for 30 min. Another 2 ml PBS was added. • 10. The cells were pelleted as above and resuspended in 0.5 mL DPBS with 5% BSA and placed in the fridge until needed.
Cells suspensions were analyzed by an Attune NxT flow cytometer using the VL1 and YL2 for live/dead and mCherry fluorescence signals respectively. Gating analysis was performed on FloJo software.

TLR9 = experiment: In vivo inflammatory profile of CpG-ODN 1018 in LNP formulations with various ICLs (Example 27; serum and dLNs); set-up: species or system BALB/c mice; settings: 1 μg dose CpG
TLR7/8 = experiment: In vivo inflammatory profile of UUGU oligoribonucleotides in LNP formulations using different ICLs (Example 28; serum and dLNs); set-up: species or system mice; settings: 1 ug UUGU dose
Source text: Blood and dLNs (pooled iliac, popliteal and inguinal LNs) were harvested 6 hrs post-injection. […] No. 740622). LNs were weighed prior to lysis, and analyte concentrations were converted from pg/mL to pg/mg of tissue mass. […] The analyte concentrations in the blood serum are reported in Table 68 and the mean fold changes over vehicle treatment are shown in Table 69. The analyte concentrations in the dLNs are reported in Table 70 and the mean fold changes over vehicle treatment are shown in Table 71. The primary aim of this study was to examine the effect of various ionizable cationic lipids (ICLs) on the delivery of a UUGU oligoribonucleotide to TLR7/8 located intracellularly in endolysosomal compartments. We also sought to determine whether PS-targeting of LNPs influenced activity. […] UUGU oligos were encapsulated in LNPs formulated with KC-OA family ICLs, AKG-UO-DM2, DODMA, or DODAP. We also tested the ALC-0315 and SM-102 LNP formulations. The effect of PS targeting on biological activity was also assessed using either DOPS or DPPS formats.

[1] = Apparent solubility of phosphatidylserine salts in ethanol (shake flask); type: physicochemical; settings: for Solubility, mM phosphatidylserine: 100% ethanol at room temperature, 24 hours, average±SD (N=3)
Protocol: Apparent solubilities of phosphatidylserine salts in ethanol were determined by shake flask technique. Sodium and ammonium salts of phosphatidylserines in the powder form were obtained from Avanti Polar Lipids (Alabama, USA). Aliquots of phosphatidylserine salt powder were placed in 12×75 borosilicate glass tubes in triplicate. Three mL of 200 proof ethanol (catalog number E-7023, MilliporeSigma, USA) were added, the tubes were closed with polyethylene snap caps, agitated using vortex mixer for 10-15 s to obtain uniform suspensions, and placed in a horizontal position on a rocking platform at room temperature (20-22° C.) overnight. The ambient temperature at the end of incubation was 20.4-20.9° C. After 24 hours incubation, the suspensions were visually checked for the presence of a solid phase, allowed to settle under gravity, and the supernatant solutions were passed through a 0.2-μm PTFE syringe membrane filters. The first 0.5 ml of the filtrate was discarded, the next 1 ml was collected, and phosphatidylserine in the filtrates was quantified by phospholipid phosphate assay as follows: 20 μL aliquots of the filtrate were taken in triplicate into glass tubes, ethanol was evaporated in a stream of argon at 70° C., and the residue was digested in a mixture of 60 μL concentrated sulfuric acid and 20 μL 30% hydrogen peroxide for 10 min at 180-190° C. The digested samples were diluted with 1 mL of deionized water, 20 μL of 10% sodium sulfite was added to destroy any residual peroxide, and the samples were incubated on a boiling water bath for 15 min to hydrolyze any condensed phosphate species. The samples were chilled down to room temperature, mixed with 0.2 mL of 2% (w/w) ammonium molybdate solution and 20 μL of 10% (w/w) ascorbic acid solution, incubated on a boiling water bath for 10 min, and chilled down in a water bath at room temperature. The phosphate concentration was determined from the optical density of the formed blue phosphomolybdic acid at 825 nm using five-point standard curve from concurrently run standards prepared from the NIST-traceable commercial phosphate standard solution diluted to cover the range of 0-2 mM phosphate (coefficient of determination R^2 >0.9999). Solubility of phosphatidylserine salts was expressed in molarity units of phosphatidylserine (Table 40). The data are average±SD (N=3).

[2] = Semple et al., (2010) Nature Biotech. 28 (2) 172-176; cited from earlier work
[3] = for % of main lipid peak to To: 1% H2O2/100 μM Fe(III)Cl, 37° C.
Protocol: The aim of this studies was to compare stability of ionizable cationic lipids under accelerated oxidation.
Prior to the experiment, 75 μl of a lipid stock was mixed with 75 μl of ultra-pure water (Rx Biosciences, cat #P01-UPW02-1000) to make 0.5 mM of cationic lipids and 5 mM of linoleic acid respectively. A combined stock in water of 10% H2O2 (Sigma-Aldrich, cat #H1009) and 1 mM of Fe(III)Cl (Sigma-Aldrich, cat #372870) was freshly by prepared prior to the experiment. To make 1% final concentration of H2O2 and 100 μM Fe(III)Cl, 15 μl of 10% H2O2/1 mM Fe(III)C1 stock was added to 135 μl of individual lipids The liposomes and individual lipids were incubated with H2O2/Fe(III)C1 at 37° C. and then 5 μl from each sample was taken at different time points (0, 24, 48, 72 and 96 hours) and dissolved in 90 μl of MeOH for HPLC analysis. Degradation of the main lipid peak was analyzed using Thermo Scientific Vanquish Flex UHPLC occupied with Charged Aerosol Detector (CAD) and Phenomenex™ Kinetex C8 column (L=150 mm, D=2.1 mm, Particle Size=1.7 μm, 100 A).
The data are presented as a percentage of the main lipid peak measured at different time points relative to the lipid peak measured at time zero.

human dendritic cells = experiment: Transfection efficiency of mCherry mRNA LNPs in human dendritic cells (flow cytometry); settings: human dendritic cells (Example 9)
Protocol: Four days prior to transfection, monocytes were isolated using CD14 isolation kit (StemCell) from PBMCs of healthy donors. […] The monocytes were cultured with IL-4 (R&D 1000 IU/mL) and GM-CSF (R&D, 800 IU/mL) in a 6 well dish at 1×10^6 cells/mL at 37° C., 5% CO2. After 4 days the immature DCs were harvested and seeded in a 96 well round bottom plate at 50,000 cells/well. LNPs were thawed by placing the vials in a 37° C. water bath for 30 seconds, or until the sample had almost fully melted. The vials were immediately placed on ice until use. The LNPs were added to final concentrations of 1 μg/ml and 0.1 μg/mL mRNA. For 1 μg/mL treatment, LNPs were added directly to each well then wells were mixed by pipetting. For 0.1 μg/mL treatment, LNPs were diluted 1:10 in complete media then added to each well and mixed by pipetting. After 4 h a maturation cytokine cocktail was added directly to each well consisting of TNF-α (R&D, 10 ng/mL), IL-1b (R&D, 2 ng/mL), IL-6 (R&D, 1000 IU/mL), and PGE1 (R&D, 1 μg/mL). After 24 h, the cells were centrifuged, washed in PBS and analyzed by flow cytometry for mCherry fluorescence. Gating analysis was performed using CytExpert software.

SMILES	mRNA endosomal escape and translation / mRNA transfection (MutuDC1940 cells)	% of main lipid peak to To ([3]; 24 h) [%]	% of main lipid peak to To ([3]; 48 h) [%]	% of main lipid peak to To ([3]; 72 h) [%]	also measured
CCCCCCCC/C=C\CCCCCCCCC1(CCCCCCCC/C=C\CCCCCCCC)OCC(CCCCN(C)C)O1 (racemic) [KC4-OA, 4-rac-2,2-di((Z)-octadec-9-en-1-yl)-1,3-dioxolan-4-yl)-N,N-dimethylbutan-1-amine]	relatively efficient	–	–	–	–
CCCCCCCC/C=C\CCCCCCCC(=O)OC[C@H](CCN(C)C)OC(=O)CCCCCCC/C=C\CCCCCCCC [AKG-OA-DM2, (S)-4-(dimethylamino)butane-1,2-diyl dioleate]	relatively poor for mRNA transfection	–	–	–	levels of IL-12p70 and type I IFN-α in the blood and dLNs (TLR9): highest levels; induction of a proinflammatory signature by UUGU LNPs by ICL (TLR7/8): most potent LNP adjuvant formulation; induction of a proinflammatory signature by UUGU LNPs by ICL (TLR7/8; listed as AKG-UO-DM2): most efficient
CCCCCCCC/C=C\CCCCCCCC(=O)OC[C@H](CCCN(C)C)OC(=O)CCCCCCC/C=C\CCCCCCCC [AKG-OA-DM3, (S)-5-(dimethylamino)pentane-1,2-diyl dioleate]	relatively poor for mRNA transfection	–	–	–	–
CCCCCCCC/C=C\CCCCCCCCOC[C@H](CN(C)C)OCCCCCCCC/C=C\CCCCCCCC [DODMA, reference compound]	–	–	–	–	induction of a proinflammatory signature by UUGU LNPs by ICL (TLR7/8): most efficient
CCCCCCCCCCCCCCCC(=O)OC[C@H](COP(=O)(O)OC[C@H](N)C(=O)O)OC(=O)CCCCCCCCCCCCCCC.N [DPPS ammonium]	–	–	–	–	ethanol solubility compared to ammonium salt of DSPS or the sodium salts [1]: several-fold higher; Solubility, mM phosphatidylserine [1]: 0.865 ± 0.060 mM
CCCCCCCCCCCCCCCC(=O)OC[C@H](COP(=O)(O)OC[C@H](N)C(=O)[O-])OC(=O)CCCCCCCCCCCCCCC.[Na+] [DPPS sodium]	–	–	–	–	Solubility, mM phosphatidylserine [1]: 0.201 ± 0.004 mM
CCCCCCCCCCCCCCCCCC(=O)OC[C@H](COP(=O)(O)OC[C@H](N)C(=O)O)OC(=O)CCCCCCCCCCCCCCCCC.N [DSPS ammonium]	–	–	–	–	Solubility, mM phosphatidylserine [1]: 0.034 ± 0.004 mM
CCCCCCCCCCCCCCCCCC(=O)OC[C@H](COP(=O)(O)OC[C@H](N)C(=O)[O-])OC(=O)CCCCCCCCCCCCCCCCC.[Na+] [DSPS sodium]	–	–	–	–	Solubility, mM phosphatidylserine [1]: 0.111 ± 0.009 mM
CCCCCCCC/C=C\CCCCCCCCC1(CCCCCCCC/C=C\CCCCCCCC)OC[C@H](CCN(C)C)O1 [KC2-OA, 2-((S)-2,2-di((Z)-octadec-9-en-1-yl)-1,3-dioxolan-4-yl)-N,N-dimethylethan-1-amine]	relatively efficient	–	–	–	–
CCCCC/C=C\C/C=C\CCCCCCCCC1(CCCCCCCC/C=C\C/C=C\CCCCC)OCC(CCN(C)C)O1 (stereo not drawn) [KC2]	–	–	–	–	activity of KC2 compared to KC3 [2]: 6 fold
CCCCC/C=C\C/C=C\CCCCCCCCC1(CCCCCCCC/C=C\C/C=C\CCCCC)OCC(CCCN(C)C)O1 (stereo not drawn) [KC3, reference compound]	–	11.2 ± 1.0	10.5 ± 0.5	0 ± 0	degradation relative to other cationic lipids under the forced oxidation with H2O2 [3]: fastest degradation
CCCCC/C=C\CCCC/C=C\CCCCCC1(CCCCC/C=C\CCCC/C=C\CCCCC)OC[C@H](CCCN(C)C)O1 [KC3-01, 3-((S)-2,2-di((6Z,12Z)-octadeca-6,12-dien-1-yl)-1,3-dioxolan-4-yl)-N,N-dimethylpropan-1-amine]	–	–	–	–	transfection activity when incorporated into LNPs (human dendritic cells): highest activity
CCCCCCCC/C=C\CCCCCCCC1(CCCCCCC/C=C\CCCCCCCC)OC[C@H](CCCN(C)C)O1 [KC3-17 (C8:1), 3-((S)-2,2-di((Z)-heptadec-8-en-1-yl)-1,3-dioxolan-4-yl)-N,N-dimethylpropan-1-amine]	–	66.1 ± 0.6	58.4 ± 1.5	45.9 ± 4.7	transfection activity when incorporated into LNPs (MutuDC1940 cells): highest activity; transfection activity when incorporated into LNPs (human dendritic cells): highest activity
CCCCCCCCCCCCCCCCCC1(CCCCCCCCCCCCCCCCC)OC[C@H](CCCN(C)C)O1 [KC3-17, (S)-3-(2,2-diheptadecyl-1,3-dioxolan-4-yl)-N,N-dimethylpropan-1-amine]	–	92.9 ± 0.3	91.8 ± 1.2	90.2 ± 1.2	transfection activity when incorporated into LNPs (MutuDC1940 cells): completely inactive
CCCCCCCC/C=C\CCCCCCCCC1(CCCCCCCC/C=C\CCCCCCCC)OC[C@H](CCCN(C)C)O1 [KC3-OA, 3-((S)-2,2-di((Z)-octadec-9-en-1-yl)-1,3-dioxolan-4-yl)-N,N-dimethylpropan-1-amine]	relatively efficient	88.9 ± 0.5	84.6 ± 0.9	79.0 ± 0.1	transfection activity when incorporated into LNPs (MutuDC1940 cells): highest activity; induction of a proinflammatory signature by UUGU LNPs by ICL (TLR7/8): most efficient; transfection activity when incorporated into LNPs (human dendritic cells): highest activity
CCCCCC/C=C\CCCCCCCCC1(CCCCCCCC/C=C\CCCCCC)OC[C@H](CCCN(C)C)O1 [KC3-PA, 3-((S)-2,2-di((Z)-hexadec-9-en-1-yl)-1,3-dioxolan-4-yl)-N,N-dimethylpropan-1-amine]	–	62.7 ± 0.1	59.2 ± 0.8	60.2 ± 0.6	transfection activity when incorporated into LNPs (human dendritic cells): highest activity
